According to ChEMBL document CHEMBL1201862, “PubChem BioAssay data set” (2004):
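96-well plates; 48 h exposure; 5 concentrations. Endpoints by linear interpolation between flanking doses. Not reached: highest tested concentration assigned. GI50: concentration for 50% inhibition of growth.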 Calls of active or inactive are those of the source. No stated cut-off is given here; in the data, active = GI50 up to about 1.1 µM and inactive = higher.

Legend:
Assay in all cases: NCI-60 cell line screen, 48 h
COLO 205 = test system: COLO 205
UO-31 = test system: UO-31
CCRF-CEM = test system: CCRF-CEM
KM12 = test system: KM12
K562 = test system: K562
A498 = test system: A498
UACC-62 = test system: UACC-62
LXFL 529 = test system: LXFL 529
SR = test system: SR
SF-539 = test system: SF-539
EKVX = test system: EKVX
CAKI-1 = test system: CAKI-1
A549 = test system: A549
SW-620 = test system: SW-620
Malme-3M = test system: Malme-3M
MOLT-4 = test system: MOLT-4
SK-OV-3 = test system: SK-OV-3
SF-295 = test system: SF-295
NCI-H460 = test system: NCI-H460
SK-MEL-2 = test system: SK-MEL-2
M14 = test system: M14
HOP-92 = test system: HOP-92
HT-29 = test system: HT-29
M19-MEL = test system: M19-MEL
TK-10 = test system: TK-10
IGROV-1 = test system: IGROV-1
DMS-273 = test system: DMS-273
NCI-H522 = test system: NCI-H522
SK-MEL-28 = test system: SK-MEL-28
OVCAR-5 = test system: OVCAR-5
UACC-257 = test system: UACC-257
786-0 = test system: 786-0
HL-60 = test system: HL-60
LOX IMVI = test system: LOX IMVI
SF-268 = test system: SF-268
HCT-116 = test system: HCT-116
RXF 393 = test system: RXF 393
OVCAR-4 = test system: OVCAR-4
ACHN = test system: ACHN
DMS-114 = test system: DMS-114
DLD-1 = test system: DLD-1
SK-MEL-5 = test system: SK-MEL-5
NCI-H226 = test system: NCI-H226
KM-20L2 = test system: KM-20L2
HCT-15 = test system: HCT-15
SNB-75 = test system: SNB-75
SNB-19 = test system: SNB-19
NCI-H23 = test system: NCI-H23
OVCAR-3 = test system: OVCAR-3
HCC 2998 = test system: HCC 2998
HOP-18 = test system: HOP-18
SNB-78 = test system: SNB-78
SN12C = test system: SN12C
HOP-62 = test system: HOP-62
U-251 = test system: U-251
OVCAR-8 = test system: OVCAR-8
RPMI-8226 = test system: RPMI-8226

## O=C(Nc1ccccc1[N+](=O)[O-])/C(=N/Nc1cccc(Cl)c1)c1c(O)c2ccccc2oc1=O
COLO 205
  GI50: 17.7 µM (inactive)
UO-31
  GI50: > 100 µM (inactive)
CCRF-CEM
  GI50: 14.4 µM (inactive)
KM12
  GI50: > 100 µM (inactive)
K562
  GI50: 25.2 µM (inactive)
A498
  GI50: > 100 µM (inactive)
UACC-62
  GI50: 42.2 µM (inactive)
LXFL 529
  GI50: 31 µM (inactive)
SR
  GI50: 0.0357 µM (active)
SF-539
  GI50: > 100 µM (inactive)
EKVX
  GI50: > 100 µM (inactive)
CAKI-1
  GI50: > 100 µM (inactive)
A549
  GI50: > 100 µM (inactive)
SW-620
  GI50: 40.9 µM (inactive)
Malme-3M
  GI50: 97.9 µM (inactive)
MOLT-4
  GI50: 48 µM (inactive)
SK-OV-3
  GI50: > 100 µM (inactive)
SF-295
  GI50: > 100 µM (inactive)
NCI-H460
  GI50: 38.5 µM (inactive)
SK-MEL-2
  GI50: > 100 µM (inactive)
M14
  GI50: > 100 µM (inactive)
HOP-92
  GI50: 23.6 µM (inactive)
HT-29
  GI50: > 100 µM (inactive)
M19-MEL
  GI50: > 100 µM (inactive)
TK-10
  GI50: > 100 µM (inactive)
IGROV-1
  GI50: 89.3 µM (inactive)
DMS-273
  GI50: 29.6 µM (inactive)
NCI-H522
  GI50: 30.5 µM (inactive)
SK-MEL-28
  GI50: > 100 µM (inactive)
OVCAR-5
  GI50: > 100 µM (inactive)
UACC-257
  GI50: 41.2 µM (inactive)
786-0
  GI50: > 100 µM (inactive)
HL-60
  GI50: > 10 µM (inactive)
LOX IMVI
  GI50: > 100 µM (inactive)
SF-268
  GI50: 28.9 µM (inactive)
HCT-116
  GI50: 22.9 µM (inactive)
RXF 393
  GI50: > 100 µM (inactive)
OVCAR-4
  GI50: > 100 µM (inactive)
ACHN
  GI50: > 100 µM (inactive)
DMS-114
  GI50: 16.2 µM (inactive)
DLD-1
  GI50: 49.3 µM (inactive)
SK-MEL-5
  GI50: 49.4 µM (inactive)
NCI-H226
  GI50: > 100 µM (inactive)
KM-20L2
  GI50: > 100 µM (inactive)
HCT-15
  GI50: 58.1 µM
SNB-75
  GI50: > 100 µM (inactive)
SNB-19
  GI50: > 100 µM (inactive)
NCI-H23
  GI50: 24.9 µM (inactive)
OVCAR-3
  GI50: 35.4 µM (inactive)
HCC 2998
  GI50: 84.1 µM (inactive)
HOP-18
  GI50: > 100 µM (inactive)

## CCOC(=O)C1=C(C)N(C2OC(COC(=O)c3ccccc3)C(OC(=O)c3ccccc3)C2OC(=O)c2ccccc2)C(=S)NC1c1ccccc1 (stereo unspecified)
COLO 205
  GI50: 33.6 µM (inactive)
UO-31
  GI50: 24.2 µM (inactive)
CCRF-CEM
  GI50: 23.1 µM (inactive)
KM12
  GI50: 50.2 µM (inactive)
K562
  GI50: 17.1 µM (inactive)
A498
  GI50: 28.2 µM (inactive)
UACC-62
  GI50: 29.3 µM (inactive)
LXFL 529
  GI50: 27.2 µM (inactive)
SNB-78
  GI50: 31.8 µM (inactive)
SR
  GI50: 20 µM (inactive)
SF-539
  GI50: 54.8 µM (inactive)
EKVX
  GI50: 6.79 µM (inactive)
CAKI-1
  GI50: 24.4 µM (inactive)
A549
  GI50: 37.4 µM (inactive)
SW-620
  GI50: 33.3 µM (inactive)
SN12C
  GI50: 40.4 µM (inactive)
Malme-3M
  GI50: 25.5 µM (inactive)
MOLT-4
  GI50: 16.1 µM (inactive)
SK-OV-3
  GI50: 60.1 µM (inactive)
SF-295
  GI50: 61.7 µM (inactive)
HOP-62
  GI50: > 100 µM (inactive)
NCI-H460
  GI50: 31.4 µM (inactive)
SK-MEL-2
  GI50: 64.3 µM (inactive)
M14
  GI50: 25.7 µM (inactive)
HT-29
  GI50: 50.6 µM (inactive)
M19-MEL
  GI50: 33.1 µM (inactive)
IGROV-1
  GI50: 46.8 µM (inactive)
NCI-H522
  GI50: 22.1 µM (inactive)
SK-MEL-28
  GI50: 49.2 µM (inactive)
OVCAR-5
  GI50: 61.7 µM (inactive)
UACC-257
  GI50: 33.5 µM (inactive)
U-251
  GI50: 34.9 µM (inactive)
HL-60
  GI50: 14.4 µM (inactive)
LOX IMVI
  GI50: 58.9 µM (inactive)
SF-268
  GI50: 44.6 µM (inactive)
HCT-116
  GI50: 29.9 µM (inactive)
OVCAR-4
  GI50: 29.4 µM (inactive)
ACHN
  GI50: 25.1 µM (inactive)
DMS-114
  GI50: 19 µM (inactive)
DLD-1
  GI50: 38.9 µM (inactive)
SK-MEL-5
  GI50: 18.4 µM (inactive)
NCI-H226
  GI50: 31.1 µM (inactive)
KM-20L2
  GI50: 43.6 µM (inactive)
SNB-75
  GI50: 30.4 µM (inactive)
SNB-19
  GI50: 55.1 µM (inactive)
NCI-H23
  GI50: 29.1 µM (inactive)
OVCAR-8
  GI50: 44.4 µM (inactive)
RPMI-8226
  GI50: 16.1 µM (inactive)
OVCAR-3
  GI50: 21.9 µM (inactive)
HCC 2998
  GI50: 49.2 µM (inactive)
HOP-18
  GI50: 16.7 µM (inactive)

## COC(=O)C1=CCC2c3[nH]c4ccccc4c3CCN2C1 (stereo unspecified)
COLO 205
  GI50: > 354 µM (inactive)
CCRF-CEM
  GI50: > 354 µM (inactive)
KM12
  GI50: > 354 µM (inactive)
K562
  GI50: > 354 µM (inactive)
UACC-62
  GI50: > 354 µM (inactive)
LXFL 529
  GI50: > 354 µM (inactive)
SR
  GI50: > 354 µM (inactive)
SF-539
  GI50: > 354 µM (inactive)
EKVX
  GI50: 343 µM (inactive)
CAKI-1
  GI50: > 354 µM (inactive)
A549
  GI50: > 354 µM (inactive)
SW-620
  GI50: > 354 µM (inactive)
SN12C
  GI50: > 354 µM (inactive)
Malme-3M
  GI50: > 354 µM (inactive)
MOLT-4
  GI50: > 354 µM (inactive)
SK-OV-3
  GI50: > 354 µM (inactive)
SF-295
  GI50: > 354 µM (inactive)
HOP-62
  GI50: > 354 µM (inactive)
NCI-H460
  GI50: > 354 µM (inactive)
SK-MEL-2
  GI50: > 354 µM (inactive)
HOP-92
  GI50: > 354 µM (inactive)
HT-29
  GI50: > 354 µM (inactive)
M19-MEL
  GI50: > 354 µM (inactive)
TK-10
  GI50: > 354 µM (inactive)
IGROV-1
  GI50: > 354 µM (inactive)
DMS-273
  GI50: > 354 µM (inactive)
NCI-H522
  GI50: 154 µM (inactive)
SK-MEL-28
  GI50: > 354 µM (inactive)
UACC-257
  GI50: 169 µM (inactive)
786-0
  GI50: > 354 µM (inactive)
U-251
  GI50: > 354 µM (inactive)
HL-60
  GI50: > 354 µM (inactive)
LOX IMVI
  GI50: > 354 µM (inactive)
SF-268
  GI50: > 354 µM (inactive)
HCT-116
  GI50: 242 µM (inactive)
RXF 393
  GI50: > 354 µM (inactive)
ACHN
  GI50: > 354 µM (inactive)
DMS-114
  GI50: > 354 µM (inactive)
DLD-1
  GI50: > 354 µM (inactive)
SK-MEL-5
  GI50: > 354 µM (inactive)
NCI-H226
  GI50: 203 µM (inactive)
KM-20L2
  GI50: > 354 µM (inactive)
HCT-15
  GI50: > 354 µM
SNB-19
  GI50: 193 µM (inactive)
NCI-H23
  GI50: > 354 µM (inactive)
OVCAR-8
  GI50: > 354 µM (inactive)
RPMI-8226
  GI50: > 354 µM (inactive)
OVCAR-3
  GI50: 275 µM (inactive)
HCC 2998
  GI50: > 354 µM (inactive)
